# Test results taken from ChEMBL document CHEMBL3817825, “Synthesis and biological evaluation of Schiff base-linked imidazolyl naphthalimides as novel potential anti-MRSA agents” (2016).
# How the values were obtained:
# Candida albicans = test: Antifungal activity against Candida albicans ATCC76615 after 24 hrs by two fold serial dilution method; assay type: functional; details: ATCC76615, 24 h
# Staphylococcus aureus [1] = test: Antibacterial activity against methicillin-resistant Staphylococcus aureus N315 after 24 hrs by two fold serial dilution method; assay type: functional; details: N315, 24 h
# Staphylococcus aureus [2] = test: Antibacterial activity against Staphylococcus aureus ATCC25923 after 24 hrs by two fold serial dilution method; assay type: functional; details: ATCC25923, 24 h
# Escherichia coli [3] = test: Antibacterial activity against Escherichia coli JM109 after 24 hrs by two fold serial dilution method; assay type: functional; details: JM109, 24 h
# Pseudomonas aeruginosa = test: Antibacterial activity against Pseudomonas aeruginosa ATCC27853 after 24 hrs by two fold serial dilution method; assay type: functional; details: ATCC27853, 24 h
# Escherichia coli [4] = test: Antibacterial activity against Escherichia coli DH52 after 24 hrs by two fold serial dilution method; assay type: functional; details: DH52, 24 h
# Candida = test: Antifungal activity against Candida mycoderma ATCC10231 after 24 hrs by two fold serial dilution method; assay type: functional; details: ATCC10231, 24 h
# Cyberlindnera jadinii = test: Antifungal activity against Candida utilis ATCC9950 after 24 hrs by two fold serial dilution method; assay type: functional; details: Williopsis jadinii, ATCC9950, 24 h
# Aspergillus flavus = test: Antifungal activity against Aspergillus flavus ATCC204304 after 24 hrs by two fold serial dilution method; assay type: functional; details: ATCC204304, 24 h
# Salmonella typhi = test: Antibacterial activity against Bacillus typhi after 24 hrs by two fold serial dilution method; assay type: functional, Salmonella enterica subsp. enterica serovar Typhi; details: Salmonella enterica
# Shigella dysenteriae = test: Antibacterial activity against Shigella dysenteriae after 24 hrs by two fold serial dilution method; assay type: functional
# Bacillus subtilis [5] = test: Antibacterial activity against Bacillus subtilis ATCC6633 after 24 hrs by two fold serial dilution method; assay type: functional; details: ATCC6633, 24 h
# Bacillus = test: Antibacterial activity against Bacillus proteus ATCC13315 after 24 hrs by two fold serial dilution method; assay type: functional; details: ATCC13315, 24 h
# Micrococcus luteus = test: Antibacterial activity against Micrococcus luteus ATCC4698 after 24 hrs by two fold serial dilution method; assay type: functional; details: ATCC4698, 24 h
# Saccharomyces cerevisiae = test: Antifungal activity against Beer yeast ATCC9763 after 24 hrs by two fold serial dilution method; assay type: functional; details: ATCC9763, 24 h
# Escherichia coli [6] = test: Potency index, ratio of chloromycin MIC to compound MIC for Escherichia coli JM109; assay type: functional
# Bacillus subtilis [7] = test: Potency index, ratio of chloromycin MIC to compound MIC for Bacillus subtilis ATCC6633; assay type: functional
SMILES,MIC (Candida albicans) [µM],MIC (Staphylococcus aureus [1]) [µM],MIC (Staphylococcus aureus [2]) [µM],MIC (Escherichia coli [3]) [µM],MIC (Pseudomonas aeruginosa) [µM],MIC (Escherichia coli [4]) [µM],MIC (Candida) [µM],MIC (Cyberlindnera jadinii) [µM],MIC (Aspergillus flavus) [µM],MIC (Salmonella typhi) [µM],MIC (Shigella dysenteriae) [µM],MIC (Bacillus subtilis [5]) [µM],MIC (Bacillus) [µM],MIC (Micrococcus luteus) [µM],MIC (Saccharomyces cerevisiae) [µM],Ratio (Escherichia coli [6]),Ratio (Bacillus subtilis [7])
CCCCc1nc(Cl)c(/C=N/N2C(=O)c3cccc4c(N5CCOCC5)ccc(c34)C2=O)n1Cc1ccccc1F,440,440,220,110,220,440,440,440,440,0.44,0.44,440,440,220,440,,
CCCCCCCCn1c(CCCC)nc(Cl)c1/C=N/N1C(=O)c2cccc3c(N4CCOCC4)ccc(c23)C1=O,440,440,220,220,880,440,440,880,880,0.44,0.88,440,440,880,880,,
CCCCc1nc(Cl)c(/C=N/N2C(=O)c3cccc4c(N5CCOCC5)ccc(c34)C2=O)n1Cc1ccccc1Cl,430,430,870,110,870,870,870,430,220,0.43,0.22,430,430,870,430,,
CCCCc1nc(Cl)c(/C=N/N2C(=O)c3cccc4c(Br)ccc(c34)C2=O)[nH]1,1110,560,1110,1110,560,1110,1110,1110,1110,1.11,0.56,560,1110,1110,140,,
CCCCc1nc(Cl)c(/C=N/N2C(=O)c3cccc4c(N5CCOCC5)ccc(c34)C2=O)n1Cc1ccc(Cl)c(Cl)c1,370,370,740,370,740,180,370,370,740,0.74,0.74,370,180,370,180,,
CCCCc1nc(Cl)c(/C=N/N2C(=O)c3cccc4c(N5CCOCC5)ccc(c34)C2=O)n1Cc1ccc(OC)cc1,430,440,440,870,440,440,870,430,430,0.44,0.44,440,220,870,220,,
CCCCc1nc(Cl)c(/C=N/N2C(=O)c3cccc4c(N5CCCC5)ccc(c34)C2=O)[nH]1,140,280,570,280,570,280,140,280,570,0.57,0.57,570,570,280,570,,
CCCCc1nc(Cl)c(/C=N/N2C(=O)c3cccc4c(N5CCCCC5)ccc(c34)C2=O)[nH]1,140,280,280,560,560,560,550,280,550,0.56,0.28,280,560,280,550,,
CCCCCn1c(CCCC)nc(Cl)c1/C=N/N1C(=O)c2cccc3c(N4CCOCC4)ccc(c23)C1=O,480,480,240,480,960,480,480,7,480,0.24,0.48,240,480,240,480,,
OC(Cn1cncn1)(Cn1cncn1)c1ccc(F)cc1F [FLUCONAZOLE],3,,,,,,10,30,840,,,,,,50,,
CCCCCCCn1c(CCCC)nc(Cl)c1/C=N/N1C(=O)c2cccc3c(N4CCOCC4)ccc(c23)C1=O,230,450,450,450,450,450,450,450,450,0.45,0.91,450,450,450,450,,
CCCCc1nc(Cl)c(/C=N/N2C(=O)c3cccc4c(N5CCOCC5)ccc(c34)C2=O)n1Cc1ccc(Cl)cc1,430,430,870,430,870,430,430,220,870,0.43,0.87,430,430,430,220,,
CCn1cc(C(=O)O)c(=O)c2cc(F)c(N3CCNCC3)cc21 [NORFLOXACIN],,20,6,3,50,3,,,,,0.05,10,20,6,,,
CCCCc1nc(Cl)c(/C=N/N2C(=O)c3cccc4c(N5CCOCC5)ccc(c34)C2=O)n1Cc1ccc(Cl)cc1Cl,370,370,180,370,180,740,370,180,180,0.37,0.37,370,370,180,370,,
CCCCc1nc(Cl)c(/C=N/N2C(=O)c3cccc4c(N5CCOCC5)ccc(c34)C2=O)n1Cc1ccc(C)cc1,450,450,220,60,450,890,900,110,900,0.45,0.11,890,450,450,450,,
CCCCc1nc(Cl)c(/C=N/N2C(=O)c3cccc4c(N5CCOCC5)ccc(c34)C2=O)n1Cc1cccc(F)c1,440,440,220,440,440,440,440,440,440,0.89,0.89,440,220,440,440,,
CCCCc1nc(Cl)c(/C=N/N2C(=O)c3cccc4c(N5CCOCC5)ccc(c34)C2=O)n1Cc1ccc(F)cc1,440,440,890,440,890,890,440,440,890,0.44,0.89,440,440,440,890,,
CCCCCCCCCCCCn1c(CCCC)nc(Cl)c1/C=N/N1C(=O)c2cccc3c(N4CCOCC4)ccc(c23)C1=O,810,200,400,10,800,800,810,10,810,0.8,0.8,800,800,400,400,10,
CCCCc1nc(Cl)c(/C=N/N2C(=O)c3cccc4c(N5CCOCC5)ccc(c34)C2=O)n1Cc1cccc(Cl)c1,430,430,430,430,430,430,430,220,430,0.43,0.11,7,220,430,220,,14
CCCCc1nc(Cl)c(/C=N/N2C(=O)c3cccc4c(N5CCOCC5)ccc(c34)C2=O)[nH]1,270,70,270,270,70,270,140,550,550,0.27,0.07,550,270,270,270,,
